# In PMC6155811, “Effect of Phenolic Compounds from Elderflowers on Glucose- and Fatty Acid Uptake in Human Myotubes and HepG2-Cells” (Molecules : A Journal of Synthetic Chemistry and Natural …, 2017):
# Where two headings read alike, the source gives them in different places.
# Legend:
# [1] = test system: human skeletal muscle cells; test: Glucose uptake in human myotubes ([14C(U)]-glucose); format: cell-based; conditions: for increase in glucose uptake: 10 µM, 2 days, vs 0.1% DMSO control, mean ± SEM
# Description: Figure 2 Effects of elderflower extracts, constituents and metabolites on glucose uptake in human myotubes. Myotubes were treated with (A) 12.5, 25 and 50 µg/mL of different crude extracts; (B,C) 0.1, 1 and 10 µM of elderflower phenolic compounds and metabolites for 2 days. Thereafter, the cells were exposed to [^14C(U)]-glucose (1 μCi/mL, 100 μM) for 4 h as described in the Materials and Methods section. 22-S-hydroxycholesterol (22-SHC) (10 μM) was used as positive control. The figures show [^14C(U)]-glucose uptake given as means ± standard error of the mean (SEM) (n = 3) from separate experiments. * p < 0.05 vs. control (0.1% dimethyl sulfoxide (DMSO)).
# (§1) Satellite cells were isolated from the Musculus obliquus internus abdominis of four healthy donors, age 34.8 (±19) years, body mass index 22.9 (±2.7) kg/m^2, fasting glucose 4.9 (±0.6) mM, insulin, plasma lipids and blood pressure within normal range and no family history of diabetes. The muscle biopsies were obtained with informed consent and approval by the National Committee for Research Ethics (Oslo, Norway). The cells were cultured on 96-well CellBIND microplates DMEM-Glutamax (5.5 mM glucose), 2% fetal bovine serum, 2% Ultroser G, penicillin (100 units/mL), streptomycin (100 μg/mL) and amphotericin B (1.25 μg/mL) for proliferation. At 70%–80% confluence, the growth medium was replaced by DMEM-Glutamax (5.5 mM glucose) supplemented with 2% fetal bovine serum, penicillin (100 units/mL), streptomycin (100 μg/mL), amphotericin B (1.25 μg/mL) and insulin (25 pM), to induce differentiation. The cells were cultured in humidified 5% CO2 atmosphere at 37 °C, and the medium was changed every 2–3 days. Experiments were performed after 7 days of differentiation. 22-S-hydroxycholesterol (22-SHC) (10 µM) was used as positive control in the glucose uptake assay. The positive control used in the oleic acid assay is the synthetic liver X receptor (LXR) agonist T0901317 (10 µm).
# (§2) Cells were exposed to test samples solved in 0.1% DMSO that were added directly to the medium for 2 days for myotubes and 24 h for HepG2 cells. Thereafter, cells were exposed to [^14C(U)]-glucose (1 μCi/mL, 100 μM) or [^14C]-oleic acid (37 kBq, 100 µM) for 4 h. A 96-well UniFilter-96 GF7B microplate (Perkin Elmer, Waltham, MA, USA) was mounted on top of the CellBIND plate (Corning Life-Sciences (Schiphol-Rijk, The Netherlands) and CO2 production was measured. After incubation the cells were washed twice with ice-cold phosphate buffered saline (PBS), lysed in 0.1 M NaOH, and radioactivity measured by liquid scintillation counting. The protein content of each sample was determined and glucose uptake was calculated using protein levels for standardization.
# DPPH radical scavenging = conditions: phenolic compounds and metabolites; IC50 ± SD
# Description: Scavenging activity towards the DPPH radical was carried out as previously described. Test substances were dissolved in DMSO or water. Values were corrected for absorbance of the test substances.
# [2] = target: T1, xanthine oxidase from bovine milk (Bos taurus, UniProt P80457); test: Inhibition of xanthine oxidase; format: biochemical; conditions: for IC50: phenolic compounds and metabolites, IC50 ± SD, read-out: XO IC50; for XO inhibition (in words): up to highest concentration tested (167 µM)
# T1 construct: xanthine oxidase from bovine milk; purchased Sigma-Aldrich (St. Louis, MO, USA); host or cells: bovine milk
# Description: The XO inhibitory activity with hypoxanthine as the substrate was carried out previously described. Test substances were dissolved in DMSO or water.
# [3] = target: T2, Porcine pancreatic α-amylase (Sus scrofa, UniProt P00690); test: α-Amylase inhibitory activity; format: biochemical; conditions: phenolic compounds and metabolites; IC50 ± SD
# T2 construct: purchased Sigma-Aldrich Chemie GmbH
# T2 sequence (P00690 16-511): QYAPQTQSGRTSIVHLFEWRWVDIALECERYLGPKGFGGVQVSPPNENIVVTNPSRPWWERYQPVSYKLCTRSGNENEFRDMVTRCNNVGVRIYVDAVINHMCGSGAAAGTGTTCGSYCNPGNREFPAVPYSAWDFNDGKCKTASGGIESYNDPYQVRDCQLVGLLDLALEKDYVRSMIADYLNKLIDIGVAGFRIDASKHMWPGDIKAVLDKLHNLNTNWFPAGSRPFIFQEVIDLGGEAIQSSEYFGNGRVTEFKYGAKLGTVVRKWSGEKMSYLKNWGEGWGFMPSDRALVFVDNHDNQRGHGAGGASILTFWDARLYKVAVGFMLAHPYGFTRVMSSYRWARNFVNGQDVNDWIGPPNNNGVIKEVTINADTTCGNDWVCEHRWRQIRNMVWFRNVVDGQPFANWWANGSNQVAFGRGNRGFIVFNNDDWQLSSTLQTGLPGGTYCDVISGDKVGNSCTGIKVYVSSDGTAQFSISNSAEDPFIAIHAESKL
# Description: The α-amylase assay was performed as described by Gella, et al.. Porcine pancreatic α-amylase (EC 3.2.1.1) was purchased from Sigma-Aldrich Chemie GmbH.
# [4] = target: T3, Baker's yeast α-glucosidase (Saccharomyces cerevisiae, UniProt P53341); test: biochemical; conditions: IC50 ± SD
# T3 construct: purchased Sigma-Aldrich Chemie GmbH (Steinheim, Germany)
# Description: The α-glucosidase inhibitory activity of the extracts was assessed according to the method described by Ranilla, et al.. Baker’s yeast α-glucosidase (EC 3.2.1.20) was purchased from Sigma-Aldrich Chemie GmbH (Steinheim, Germany).
# [5] = target: T4, 15-lipoxygenase (15-LO) from soybeans (Glycine max, UniProt P08170); test: Inhibition of 15-lipoxygenase; format: biochemical, soybean; conditions: IC50 ± SD
# T4 construct: 15-lipoxygenase (15-LO) from soybeans; purchased Sigma-Aldrich (St. Louis, MO, USA); host or cells: soybeans
# T4 sequence (P08170 1-839): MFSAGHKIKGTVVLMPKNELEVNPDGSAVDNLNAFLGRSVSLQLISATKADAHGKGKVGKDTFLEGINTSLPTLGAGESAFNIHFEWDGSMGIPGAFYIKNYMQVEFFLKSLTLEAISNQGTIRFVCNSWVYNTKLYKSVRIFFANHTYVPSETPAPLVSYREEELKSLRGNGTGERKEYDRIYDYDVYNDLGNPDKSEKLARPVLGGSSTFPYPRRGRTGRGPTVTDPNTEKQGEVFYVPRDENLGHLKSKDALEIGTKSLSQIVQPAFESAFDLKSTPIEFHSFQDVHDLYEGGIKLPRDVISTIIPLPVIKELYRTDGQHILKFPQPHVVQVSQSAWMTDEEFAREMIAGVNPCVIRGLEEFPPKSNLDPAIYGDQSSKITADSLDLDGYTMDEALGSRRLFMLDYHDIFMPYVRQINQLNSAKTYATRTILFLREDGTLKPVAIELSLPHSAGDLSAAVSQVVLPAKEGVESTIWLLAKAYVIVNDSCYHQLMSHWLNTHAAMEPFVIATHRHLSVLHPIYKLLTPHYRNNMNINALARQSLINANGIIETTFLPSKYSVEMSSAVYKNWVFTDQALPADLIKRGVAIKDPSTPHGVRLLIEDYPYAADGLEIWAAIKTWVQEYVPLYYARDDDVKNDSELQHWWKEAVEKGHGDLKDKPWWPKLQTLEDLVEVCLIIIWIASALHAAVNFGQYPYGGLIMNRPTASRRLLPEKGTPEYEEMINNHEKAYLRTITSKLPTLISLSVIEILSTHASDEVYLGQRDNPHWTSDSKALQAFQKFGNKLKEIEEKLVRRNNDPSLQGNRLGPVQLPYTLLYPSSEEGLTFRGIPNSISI
# Description: Test substances were dissolved in DMSO or water, and the assay was carried out as previously described.
# [6] = test system: human skeletal muscle cells; test: Oleic acid uptake in human myotubes ([14C]-oleic acid); format: cell-based; conditions: 10 µM
# Description: Figure 3 Effects of elderflower extracts, constituents and metabolites on oleic acid uptake in human myotubes. Myotubes were treated with (A) 12.5, 25 and 50 µg/mL of different crude extracts; (B,C) 0.1, 1 and 10 µM of elderflower phenolic compounds and metabolites for 2 days. Thereafter, the cells were exposed to [^14C]-oleic acid (37 kBq, 100 µM) for 4 h as described in Materials and Methods. A synthetic liver X receptor (LXR) agonist T0901317 (10 μM) was used as positive control. The figures show [^14C]-oleic acid uptake given as means ± SEM (n = 3) from separate experiments. * p < 0.05 vs. control (0.1% DMSO).
# as §1, §2
# [7] = α-Glucosidase IC50, phenolic compounds and metabolites
# [8] = phenolic compounds and metabolites, read-out: 15-LO IC50
# [9] = 15-LO IC50, phenolic compounds and metabolites
# [10] = 10 µM (highest concentration tested)
# [11] = phenolic compounds and metabolites, read-out: α-Glucosidase IC50
# T3 sequence (P53341 whole entry): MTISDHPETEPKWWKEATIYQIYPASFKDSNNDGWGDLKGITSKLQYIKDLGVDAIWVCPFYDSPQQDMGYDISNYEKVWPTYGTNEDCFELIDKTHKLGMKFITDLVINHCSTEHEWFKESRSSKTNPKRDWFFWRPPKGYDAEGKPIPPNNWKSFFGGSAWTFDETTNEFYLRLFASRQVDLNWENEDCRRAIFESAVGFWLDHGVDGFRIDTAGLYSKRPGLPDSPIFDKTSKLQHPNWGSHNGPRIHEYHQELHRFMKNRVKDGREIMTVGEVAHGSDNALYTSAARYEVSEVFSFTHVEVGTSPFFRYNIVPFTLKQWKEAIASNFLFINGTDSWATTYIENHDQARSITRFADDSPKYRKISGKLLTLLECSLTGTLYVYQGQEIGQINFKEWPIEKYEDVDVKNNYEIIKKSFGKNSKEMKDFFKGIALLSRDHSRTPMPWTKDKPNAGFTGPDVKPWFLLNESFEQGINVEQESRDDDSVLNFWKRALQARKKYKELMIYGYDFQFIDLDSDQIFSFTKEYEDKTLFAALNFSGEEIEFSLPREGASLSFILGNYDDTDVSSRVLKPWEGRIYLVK
# T1 sequence (P80457 whole entry): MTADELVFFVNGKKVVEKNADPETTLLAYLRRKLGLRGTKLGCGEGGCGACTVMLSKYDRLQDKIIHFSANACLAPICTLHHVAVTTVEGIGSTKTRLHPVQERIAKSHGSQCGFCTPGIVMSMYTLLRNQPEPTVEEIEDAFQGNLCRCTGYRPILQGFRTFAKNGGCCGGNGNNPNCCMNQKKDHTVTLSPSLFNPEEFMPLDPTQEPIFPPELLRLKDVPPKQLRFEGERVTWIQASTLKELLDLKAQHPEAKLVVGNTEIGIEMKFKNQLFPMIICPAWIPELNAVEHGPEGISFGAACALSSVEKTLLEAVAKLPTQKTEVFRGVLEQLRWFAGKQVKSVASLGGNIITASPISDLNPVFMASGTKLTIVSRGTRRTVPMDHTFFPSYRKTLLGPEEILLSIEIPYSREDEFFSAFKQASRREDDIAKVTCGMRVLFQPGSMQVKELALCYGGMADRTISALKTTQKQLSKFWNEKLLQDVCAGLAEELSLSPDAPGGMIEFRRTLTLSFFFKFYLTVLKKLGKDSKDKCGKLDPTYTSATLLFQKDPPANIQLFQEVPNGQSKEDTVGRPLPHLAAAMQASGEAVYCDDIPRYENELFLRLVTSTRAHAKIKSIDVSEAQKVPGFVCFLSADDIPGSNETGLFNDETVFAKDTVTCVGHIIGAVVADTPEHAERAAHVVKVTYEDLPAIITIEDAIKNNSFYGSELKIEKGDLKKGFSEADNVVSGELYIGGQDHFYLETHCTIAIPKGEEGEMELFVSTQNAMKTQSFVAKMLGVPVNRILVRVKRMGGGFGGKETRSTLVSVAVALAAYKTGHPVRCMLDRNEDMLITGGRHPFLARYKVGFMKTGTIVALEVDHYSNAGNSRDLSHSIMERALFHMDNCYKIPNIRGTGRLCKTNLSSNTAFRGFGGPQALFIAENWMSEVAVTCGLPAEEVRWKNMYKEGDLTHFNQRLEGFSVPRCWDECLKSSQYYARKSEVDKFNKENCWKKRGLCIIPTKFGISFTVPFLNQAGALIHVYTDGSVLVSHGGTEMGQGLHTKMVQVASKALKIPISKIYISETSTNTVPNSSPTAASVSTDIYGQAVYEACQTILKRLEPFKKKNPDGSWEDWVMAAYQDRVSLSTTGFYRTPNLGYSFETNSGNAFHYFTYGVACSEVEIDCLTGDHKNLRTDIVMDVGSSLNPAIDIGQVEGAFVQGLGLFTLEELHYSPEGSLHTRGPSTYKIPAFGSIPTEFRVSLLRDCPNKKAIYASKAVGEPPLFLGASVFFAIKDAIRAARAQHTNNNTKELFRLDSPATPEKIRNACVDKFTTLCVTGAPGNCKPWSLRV
Structure (SMILES),increase in glucose uptake [1],IC50 (DPPH radical scavenging),IC50 [2],IC50 [3],"IC50 [4, 7]","IC50 [5, 8]","glucose uptake (in words) ([1]; 0.1 and 1 µM, compared to DMSO control)",XO inhibition (in words) [2],"IC50 [5, 9]",oleic acid uptake (in words) [6],"glucose uptake (in words) [1, 10]","IC50 [4, 11]"
CC1OC(OCC2OC(Oc3c(-c4ccc(O)cc4)oc4cc(O)cc(O)c4c3=O)C(O)C(O)C2O)C(O)C(O)C1O (stereo not shown) [Kaempferol-3-rutinoside],29.7% ± 2.5%,30.6 ± 3.9 µM,63.8 ± 2.1 µM,19.1 ± 0.5 µM,23.9 ± 1.1 µM,109 ± 5.6 µM,,,,,,
O=C(O)c1ccccc1 [Benzoic acid],,145 ± 5.8 µM,> 167 µM,,129 ± 3.8 µM,,inactive,inactive,138 ± 6.5 µM,,,
O=C(C=Cc1ccc(O)c(O)c1)OC1CC(O)(C(=O)O)CC(O)C1O (stereo not shown) [Neochlorogenic acid],,,26.2 ± 3.1 µM,15.4 ± 3.2 µM,,115 ± 5.8 µM,,,,,,
"C[C@@H]1O[C@@H](OC[C@H]2O[C@@H](Oc3c(-c4ccc(O)c(O)c4)oc4cc(O)cc(O)c4c3=O)[C@H](O)[C@@H](O)[C@@H]2O)[C@H](O)[C@H](O)[C@H]1O [Rutin, Quercetin-3-rutinoside]",,22.5 ± 1.6 µM,42.9 ± 2.9 µM,4.1 ± 0.8 µM,4.6 ± 2.3 µM,99.3 ± 1.1 µM,,,,,,
Cc1ccc(O)c(O)c1 [4-Methylcatechol],,40.5 ± 3.6 µM,> 167 µM,94.8 ± 6.8 µM,,129 ± 5.2 µM,,inactive,,small but significant increase,small increase,98.9 ± 3.5 µM
"O=C(O)Cc1ccc(O)c(O)c1 [3,4-Dihydroxyphenylacetic acid]",,116 ± 1.4 µM,> 167 µM,74.9 ± 1.7 µM,,135 ± 7.3 µM,,inactive,,small but significant increase,small increase,78.5 ± 1.6 µM
COc1cc(-c2oc3cc(O)cc(O)c3c(=O)c2O)ccc1O [Isorhamnetin],18.8% ± 4.3%,63.3 ± 2.3 µM,,,8.1 ± 3.1 µM,,,,103 ± 2.4 µM,,,
O=C(O)/C=C/c1ccc(O)c(O)c1 [Caffeic acid],,90.3 ± 4.3 µM,107 ± 3.2 µM,,18.5 ± 0.9 µM,,,,,,,
